Reference: the supplement of paper PMC11061612

Experiments:
Test in all cases: combination Emax (second highest fraction inhibited in the dose matrix, 72 h); higher = more inhibition; extreme values may be limits of the assay
[1] = test system: KYSE-50 (Esophageal Squamous Cell Carcinoma)
In short: (§1)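 Cell lines in DMEM/F12 or RPMI with 10% FBS were plated in 1536-well plates, held 24 hours at 37°C, 5% CO2, then given two-drug dose matrices for 72 hours (DMSO typically 0.2%). Viability was read by CellTiter-Glo 2.0 luminescence and scaled as inhibition from 0 (vehicle wells) to 1 (blank wells). Combination Emax is the second-highest inhibition in the matrix; Bliss excess is observed combination effect minus expected EA + EB − EA·EB, EA and EB being single-agent effects.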

[2] = test system: LOU-NH91 (Squamous Cell Lung Carcinoma)
In short: as §1

[3] = test system: EW-13 (Ewing's Sarcoma)
In short: as §1

[4] = test system: RPMI-7951 (Melanoma)
In short: as §1

[5] = test system: LC4-1 (B-Lymphoblastic Leukemia)
In short: as §1

[6] = test system: KINGS-1 (Low Grade Glioma)
In short: as §1

[7] = test system: KU-19-19 (Bladder Carcinoma)
In short: as §1

[8] = test system: NCI-N87 (Gastric Carcinoma)
In short: as §1

[9] = test system: OVISE (Ovarian Carcinoma)
In short: as §1

[10] = test system: MFE-319 (Endometrial Carcinoma)
In short: as §1

[11] = test system: EBC-1 (Squamous Cell Lung Carcinoma)
In short: as §1

[12] = test system: GOTO (Neuroblastoma)
In short: as §1

[13] = test system: TGBC11TKB (Gastric Carcinoma)
In short: as §1

[14] = test system: SCC-3 (B-Cell Non-Hodgkin's Lymphoma)
In short: as §1

[15] = test system: KLE (Endometrial Carcinoma)
In short: as §1

[16] = test system: NH-12 (Neuroblastoma)
In short: as §1

[17] = test system: KP-2 (Pancreatic Carcinoma)
In short: as §1

[18] = test system: IMR-5 (Neuroblastoma)
In short: as §1

[19] = test system: SCC-9 (Oral Cavity Carcinoma)
In short: as §1

Row | SMILES | combination Emax [1] | combination Emax [2] | combination Emax [3] | combination Emax [4] | combination Emax [5] | combination Emax [6] | combination Emax [7] | combination Emax [8] | combination Emax [9] | combination Emax [10] | combination Emax [11] | combination Emax [12] | combination Emax [13] | combination Emax [14] | combination Emax [15] | combination Emax [16] | combination Emax [17] | combination Emax [18] | combination Emax [19]
1 | COc1cc2c(cc1OCCCCCOc1cc3c(cc1OC)C(=O)N1C=C(C)C[C@H]1C=N3)N=C[C@@H]1CC(C)=CN1C2=O [SG3199] + O=C(c1cc(Cc2n[nH]c(=O)c3ccccc23)ccc1F)N1CCN(C(=O)C2CC2)CC1 [Olaparib] (first compound max 0.001 µM, 7x7, partner max 10 µM) | 0.0539 | 0.175 | 0.584 | 0.203 | 0.528 | 0.147 | 0.247 | 0.125 | 0.0965 | 0.12 | 0.183 | 0.522 | 0.3 | 0.437 | 0.184 | 0.319 | 0.13 | 0.543 | 0.0776
2 | CS(=O)(=O)CCNCc1ccc(-c2ccc3ncnc(Nc4ccc(OCc5cccc(F)c5)c(Cl)c4)c3c2)o1 [Lapatinib] + NC1(c2ccc(-c3nc4ccn5c(=O)[nH]nc5c4cc3-c3ccccc3)cc2)CCC1 [MK-2206] (first compound max 10 µM, 7x7, partner max 10 µM) | – | – | – | – | 0.954 | 0.83 | 0.837 | 0.977 | 0.928 | 0.946 | – | – | 0.418 | – | – | – | – | – | 0.972
3 | C[C@@H]1COCCN1c1cc(C2([S@](C)(=N)=O)CC2)nc(-c2ccnc3[nH]ccc23)n1 [AZD6738] + O=C(c1cc(Cc2n[nH]c(=O)c3ccccc23)ccc1F)N1CCN(C(=O)C2CC2)CC1 [Olaparib] (first compound max 10 µM, 7x7, partner max 10 µM) | 0.437 | 0.236 | 0.757 | 0.886 | 0.952 | 0.376 | 0.767 | 0.693 | 0.663 | 0.567 | 0.487 | 0.808 | 0.796 | 0.994 | 0.482 | 0.867 | 0.142 | 0.958 | 0.314
4 | COc1cccc(OCCCN)c1-c1cc(Nc2cnc(C#N)cn2)n[nH]1 [Prexasertib] + Cc1cc2ncnn2cc1Nc1ncc2c(n1)n(C1CCOCC1)c(=O)n2C [AZD7648] (first compound max 1 µM, 7x7, partner max 10 µM) | 0.818 | 0.44 | 0.512 | 0.971 | 0.97 | 0.607 | 0.836 | 0.776 | 0.716 | 0.865 | 0.588 | 0.908 | 0.96 | 1 | 0.471 | 0.908 | 0.57 | 0.98 | 0.49
5 | CN(C)CCCOc1ccc(-c2ccc3ncc4c(c3c2)n(C2CCOCC2)c(=O)n4C)cn1 [AZD0156] + C[C@@H]1COCCN1C2=NC(=NC(=C2)C3(CC3)[S@](=N)(=O)C)C4=C5C=CNC5=NC=C4 [AZD6738] (first compound max 1 µM, 7x7, partner max 10 µM) | 0.674 | 0.236 | 0.581 | 0.886 | 0.908 | 0.25 | 0.869 | 0.704 | 0.759 | 0.683 | 0.535 | 0.913 | 0.799 | 0.998 | 0.469 | 0.901 | 0.158 | 0.926 | 0.321
6 | CCN(CCO)CCCOc1ccc2c(Nc3cc(CC(=O)Nc4cccc(F)c4)[nH]n3)ncnc2c1 [AZD2811] + C[C@@H]1COCCN1C2=NC(=NC(=C2)C3(CC3)[S@](=N)(=O)C)C4=C5C=CNC5=NC=C4 [AZD6738] (first compound max 1 µM, 7x7, partner max 10 µM) | 0.507 | 0.27 | 0.638 | 0.856 | 0.97 | 0.302 | 0.779 | 0.744 | 0.663 | 0.668 | 0.32 | 0.893 | 0.791 | 0.973 | 0.387 | 0.858 | 0.12 | 1 | 0.336
7 | C=CCn1c(=O)c2cnc(Nc3ccc(N4CCN(C)CC4)cc3)nc2n1-c1cccc(C(C)(C)O)n1 [AZD1775] + O=C(c1cc(Cc2n[nH]c(=O)c3ccccc23)ccc1F)N1CCN(C(=O)C2CC2)CC1 [Olaparib] (first compound max 1 µM, partner max 10 µM) | 0.301 | 0.383 | 0.622 | 0.766 | 0.92 | 0.381 | 0.804 | 0.711 | 0.619 | 0.619 | 0.272 | 0.771 | 0.794 | 0.968 | 0.456 | 0.906 | 0.225 | 0.83 | 0.265
